Data set [1] can be described thus: The drug is tested on Z-021 corresponding to metagenome with ENA study accession number: PRJEB37062 and ENA sample accession number: ERS12561820 for biotransformation under anaerobic condition. The drug concentrations were measured over 9 timepoints collected between 0 and 24 hours of incubation by liquid-chromatography-coupled mass spectrometry (LC–MS). The settings on record: 2 µM.

For data set [2] the following is noted: human gut metagenome, 24 h, 2 µM.
Data set [3] in a line: The drug is tested on WLS-350 corresponding to human gut metagenome with ENA study accession number: PRJEB37062 and ENA sample accession number: ERS12561789 for biotransformation under anaerobic condition. The drug concentrations were measured over 9 timepoints collected between 0 and 24 hours of incubation by liquid-chromatography-coupled mass spectrometry (LC–MS). The following applies: 2 µM.

Data set [4] in a line: The drug is tested on WLS-027 corresponding to human gut metagenome with ENA study accession number: PRJEB37062 and ENA sample accession number: ERS12561744 for biotransformation under anaerobic condition. The drug concentrations were measured over 9 timepoints collected between 0 and 24 hours of incubation by liquid-chromatography-coupled mass spectrometry (LC–MS). The settings on record: 2 µM.

Data set [5] can be described thus: The drug is tested on WLS-220 corresponding to human gut metagenome with ENA study accession number: PRJEB37062 and ENA sample accession number: ERS12561769 for biotransformation under anaerobic condition. The drug concentrations were measured over 9 timepoints collected between 0 and 24 hours of incubation by liquid-chromatography-coupled mass spectrometry (LC–MS). The following applies: 2 µM.

Data set [6] is described as follows: The drug is tested on WLS-010 corresponding to human gut metagenome with ENA study accession number: PRJEB37062 and ENA sample accession number: ERS12561743 for biotransformation under anaerobic condition. The drug concentrations were measured over 9 timepoints collected between 0 and 24 hours of incubation by liquid-chromatography-coupled mass spectrometry (LC–MS). The following applies: 2 µM.

Data set [7] is described as follows: The drug is tested on Z-006 corresponding to mouse gut metagenome with ENA study accession number: PRJEB37062 and ENA sample accession number: ERS12561806 for biotransformation under anaerobic condition. The drug concentrations were measured over 9 timepoints collected between 0 and 24 hours of incubation by liquid-chromatography-coupled mass spectrometry (LC–MS). The settings on record: 2 µM.

Data set [8] is described as follows: The drug is tested on WLS-170 corresponding to human gut metagenome with ENA study accession number: PRJEB37062 and ENA sample accession number: ERS12561762 for biotransformation under anaerobic condition. The drug concentrations were measured over 9 timepoints collected between 0 and 24 hours of incubation by liquid-chromatography-coupled mass spectrometry (LC–MS). The following applies: 2 µM.

The nature of data set [9]: The drug is tested on WLS-038 corresponding to human gut metagenome with ENA study accession number: PRJEB37062 and ENA sample accession number: ERS12561745 for biotransformation under anaerobic condition. The drug concentrations were measured over 9 timepoints collected between 0 and 24 hours of incubation by liquid-chromatography-coupled mass spectrometry (LC–MS). The following applies: 2 µM.

Data set [10] is described as follows: The drug is tested on Z-016 corresponding to mouse gut metagenome with ENA study accession number: PRJEB37062 and ENA sample accession number: ERS12561815 for biotransformation under anaerobic condition. The drug concentrations were measured over 9 timepoints collected between 0 and 24 hours of incubation by liquid-chromatography-coupled mass spectrometry (LC–MS). The following applies: 2 µM.

For data set [11] the following is noted: human gut metagenome, 24 h, 2 µM. This is another data set of the same source.
For data set [12] the following is noted: human gut metagenome, 24 h, 2 µM. This is another data set of the same source.
The conditions of data set [13]: human gut metagenome, 24 h, 2 µM. This is another data set of the same source.
The conditions of data set [14]: human gut metagenome, 24 h, 2 µM. This is another data set of the same source.
The conditions of data set [15]: human gut metagenome, 24 h, 2 µM. The source holds these as a separate data set.
The conditions of data set [16]: human gut metagenome, 24 h, 2 µM. The source holds these as a separate data set.
Data set [17] is described as follows: The drug is tested on WLS-073 corresponding to human gut metagenome with ENA study accession number: PRJEB37062 and ENA sample accession number: ERS12561749 for biotransformation under anaerobic condition. The drug concentrations were measured over 9 timepoints collected between 0 and 24 hours of incubation by liquid-chromatography-coupled mass spectrometry (LC–MS). The settings on record: 2 µM.

The conditions of data set [18]: human gut metagenome, 24 h, 2 µM. This is another data set of the same source.
Data set [19] can be described thus: The drug is tested on Z-024 corresponding to pig gut metagenome with ENA study accession number: PRJEB37062 and ENA sample accession number: ERS12561823 for biotransformation under anaerobic condition. The drug concentrations were measured over 9 timepoints collected between 0 and 24 hours of incubation by liquid-chromatography-coupled mass spectrometry (LC–MS). The settings on record: 2 µM.

The conditions of data set [20]: human gut metagenome, 24 h, 2 µM. This is another data set of the same source.
Further: call rule not given here.

With `CC(=O)CCCCn1c(=O)c2c(ncn2C)n(C)c1=O` [PENTOXIFYLLINE], the “Bacterial Biotransformation” value in data set [1], in [2], in data set [3], in [4], in [5] and in data set [6] was “Compound NOT metabolized” throughout. The “Bacterial Biotransformation” value was “Compound NOT metabolized” in data set [7]; “Compound metabolized” in data set [8]; “Compound NOT metabolized” in [9]; “Compound NOT metabolized” in data set [10]; “Compound NOT metabolized” in data set [11]; “Compound NOT metabolized” in data set [12]. Further, the “Bacterial Biotransformation” value in data set [13] is reported as “Compound NOT metabolized”; in [14] it was “Compound NOT metabolized”; in [15] it was “Compound NOT metabolized”; in data set [16], “Compound metabolized”; in data set [17] it was “Compound NOT metabolized”; in data set [18], “Compound metabolized”. The “Bacterial Biotransformation” value in [19] and in [20] was “Compound NOT metabolized” throughout.

Regarding `Cc1cc(C)cc(OCC2CNC(=O)O2)c1` (stereo not given) [METAXALONE], the “Bacterial Biotransformation” value in [1] was “Compound NOT metabolized”; in data set [2], “Compound metabolized”; in data set [3] it was “Compound metabolized”; in data set [4], “Compound metabolized”; in data set [5], “Compound metabolized”; in data set [6] it was “Compound metabolized”. The “Bacterial Biotransformation” value in [7] is “Compound NOT metabolized”; in [8], “Compound metabolized”; in data set [9], “Compound metabolized”; in data set [10], “Compound NOT metabolized”; in [11] it was “Compound metabolized”; in [12], “Compound metabolized”. For the same compound, the “Bacterial Biotransformation” value in [13] is given as “Compound NOT metabolized”; in data set [14], “Compound metabolized”; in [15] it was “Compound metabolized”; in data set [16], “Compound metabolized”; in [17], “Compound NOT metabolized”; in data set [18], “Compound metabolized”. Also, the “Bacterial Biotransformation” value in data set [19] is listed as “Compound NOT metabolized”; in [20] it was “Compound metabolized”.

Regarding `OCCN(CCO)c1nc(N2CCCCC2)c2nc(N(CCO)CCO)nc(N3CCCCC3)c2n1` [DIPYRIDAMOLE], the “Bacterial Biotransformation” value in data set [1], in data set [2], in data set [3], in data set [4], in [5] and in [6] was “Compound metabolized” throughout. The “Bacterial Biotransformation” value in data set [7] is given as “Compound NOT metabolized”; in data set [8], “Compound metabolized”; in [9], “Compound NOT metabolized”; in data set [10], “Compound NOT metabolized”; in [11], “Compound metabolized”; in data set [12] it was “Compound metabolized”. For the same compound, the “Bacterial Biotransformation” value is “Compound metabolized” in data set [13]; “Compound metabolized” in [14]; “Compound NOT metabolized” in data set [15]; “Compound metabolized” in [16]; “Compound NOT metabolized” in data set [17]; “Compound metabolized” in data set [18]. Moreover, the “Bacterial Biotransformation” value in data set [19] and in data set [20] was “Compound metabolized” each time.

(Values after ChEMBL document CHEMBL5724914, “Linking interpersonal differences in gut microbiota composition and drug biotransformation activity” (2024).)
